{"source": "paper PMC3878165", "about": "(Bioorganic & Medicinal Chemistry Letters, 2013)"}
{"target": "SARS-CoV 3CLpro (Severe acute respiratory syndrome coronavirus, UniProt P0C6U8)", "assay_type": "biochemical"}
{"smiles": "CNc1ccc(N(Cc2ccsc2)C(=O)Cn2nnc3ccccc32)cc1", "note": "[16j]", "3CLpro activity in words": "potency comparable to probe ML300"}
{"smiles": "CC(=O)Nc1ccc(N(C(=O)Cn2nnc3ccccc32)C(C(=O)NC(C)(C)C)c2ccsc2)cc1", "note": "(centres unmarked) [13a]", "3CLpro activity in words": "moderate micromolar activity"}
{"smiles": "CC(C)(C)NC(=O)C(c1ccsc1)N(C(=O)Cn1nnc2ccccc21)c1ccc(NC(=O)C2CCCCC2)cc1", "note": "(centres unmarked) [13h]", "3CLpro activity in words": "loss of inhibition"}
{"smiles": "CC(C)(C)NC(=O)C(c1ccsc1)N(C(=O)Cn1nnc2ccccc21)c1ccc(NC(=O)C(C)(C)C)cc1", "note": "(centres unmarked) [13e]", "loss in inhibition/activity": "three-fold"}
{"smiles": "CC(C)(C)NC(=O)C(c1ccsc1)N(C(=O)Cn1nnc2ccccc21)c1ccc(NC(=O)C2CC2)cc1", "note": "(centres unmarked) [13f]", "3CLpro activity in words": "loss of inhibition"}
{"smiles": "CC(C)COC(=O)Nc1ccc(N(C(=O)Cn2nnc3ccccc32)C(C(=O)NC(C)(C)C)c2ccsc2)cc1", "note": "(centres unmarked) [13l]", "3CLpro activity in words": "weak or inactive"}
{"smiles": "O=C(Nc1ccc(N(Cc2ccsc2)C(=O)Cn2nnc3ccccc32)cc1)c1ccccc1", "note": "[16h]", "3CLpro activity in words": "lack of activity"}
{"smiles": "COc1ncc(-c2ccc(N(Cc3ccsc3)C(=O)Cn3nnc4ccccc43)cc2)cn1", "note": "[17e]", "3CLpro activity in words": "micromolar activity"}
{"smiles": "CC(C)(C)NC(=O)C(c1ccsc1)N(C(=O)Cn1nnc2ccccc21)c1ccc(NS(C)(=O)=O)cc1", "note": "(centres unmarked) [13b]", "loss in inhibition/activity": "three-fold"}
{"smiles": "O=C(Cn1nnc2ccccc21)N(Cc1ccsc1)c1ccc(NCc2ccccc2)cc1", "note": "[16k]", "3CLpro activity in words": "potency comparable to probe ML300"}
{"smiles": "O=C(Nc1ccc(N(Cc2ccsc2)C(=O)Cn2nnc3ccccc32)cc1)C1CCCCC1", "note": "[16g]", "3CLpro activity in words": "weak inhibitor"}
